{"source": "patent US6933131B2", "about": "“Nucleic acids encoding insect acetylcholine receptor subunits” (Bayer Aktiengesellschaft, priority 1998, dated 2005)", "tested_on": "acetylcholine receptors according to the invention (recombinantly modified HEK293 cells of Example 2)", "details": "nicotine final concentration 500 μM; HEK293 cells expressing the α subunit of an L-type Ca channel, recombinantly modified as in Example 2; FIG. 1", "protocol": "Cells were loaded with Fura-2-acetoxymethyl ester (5-10 μM in serum-free minimal essential medium containing 1% bovine serum albumin and 5 mM calcium chloride), washed with Tyrode solution buffered with N-(2-hydroxyethyl)piperazine-N′-(2-ethanesulphonic acid) (5 mM HEPES) and alternately illuminated, under a fluorescence microscope (Nikon Diaphot) with light of 340 nm and 380 nm wavelength. A measurement point corresponds to a pair of video images at the two wavelengths (exposure time per image, 100 ms). The time interval between two measurement points is 3 s. […] The fluorescence intensity of the cells when illuminated with light of 380 nm wavelength was divided by the corresponding intensity at 340 nm, thereby giving the ratio.\nHEK293 cells, which express the α subunit of an L-type Ca channel (Zong et al. 1995, Stetzer et al. 1996), were cultured in Dulbecco's modified Eagle's medium and 10% foetal calf serum at 5% CO2 and from 20° C. to 37° C. […] Individual resistant clones were analyzed as described below.\nThe alterations in the intracellular calcium concentration were measured using Fura-2. […] 100 μl Tyrode buffer were added to the wells of the microtitre plate and the cells were illuminated alternately, under a fluorescence microscope (Nikon Diaphot), with light of 340 nm and 380 nm wavelength. […]"}
{"smiles": "CN1CCCC1c1cccnc1", "note": "(stereo not shown) [nicotine]", "values": [{"measurement": "change in intracellular calcium (Fura-2 fluorescence ratio 380 nm/340 nm) following the addition of nicotine", "value": "increase in intracellular calcium"}]}
